# Measurements: patent US8580778B2, “Substituted dihydropyrazolones and their use” (Bayer Intellectual Property GmbH, priority 2008, dated 2013)
# Where a name gives a salt, the structure may show the parent alone.
# Molecular target: HIF prolyl hydroxylase
# Assay: Inhibition of the activity of HIF prolyl hydroxylase (VBC complex binding test)
# Format: biochemical
# Settings: cell lysate containing prolyl hydroxylase
# Procedure: 1.a) Inhibition of the Activity of HIF Prolyl Dydroxylase:
# Hydroxylated HIF bonds specifically to the von Hippel-Lindau protein-elongin B-elongin C complex (VBC complex). This interaction occurs only if HIF is hydroxylated on a conserved prolyl radical. It is the basis for the biochemical determination of HIF prolyl hydroxylase activity. The test is carried out as described [Oehme F., Jonghaus W., Narouz-Ott L., Huetter J., Flamme I., Anal. Biochem. 330 (1), 74-80 (2004)]:
# A clear 96-well microtiter plate coated with NeutrAvidin HBC (Pierce) is incubated with blocker casein for 30 minutes. The plate is then washed three times with 200 μl each time of wash buffer (50 mM Tris, pH 7.5, 100 mM NaCl, 10% (v/v) blocker casein, 0.05% (v/v) Tween 20) per well. The peptide biotin-DLDLEMLAPYIPMDDDFQL (Eurogentec, 4102 Seraing, Belgium) is added in a concentration of 400 nM in 100 μl wash buffer. This peptide serves as a substrate for the prolyl hydroxylation and is bonded to the microtiter plate. After incubation for 60 minutes, the plate is washed three times with wash buffer, incubated with 1 mM biotin in blocker casein for 30 minutes and then washed again three times with wash buffer.
# To carry out the prolyl hydroxylase reaction, the peptide substrate bonded to the plate is incubated with a cell lysate containing prolyl hydroxylase for 1 to 60 minutes. The reaction takes place in 100 μl reaction buffer (20 mM Tris, pH 7.5, 5 mM KCl, 1.5 mM MgCl2, 1 μM-1 mM 2-oxoglutarate, 10 μM FeSO4, 2 mM ascorbate) at room temperature. The reaction mixture moreover contains various concentrations of the prolyl hydroxylase inhibitor to be tested. The test substance is preferably, but not exclusively, employed at concentrations of between 1 nM and 100 μM. The reaction is stopped by washing the plate three times with wash buffer.
# For quantitative determination of the prolyl hydroxylation, a fusion protein which contains both thioredoxin from E. coli and the VBC complex in 80 μl bonding buffer (50 mM Tris, pH 7.5, 120 mM NaCl) is added. After 15 minutes, 10 μl of a solution of polyclonal anti-thioredoxin antibodies from rabbit in bonding buffer are added. After a further 30 minutes, 10 μl of a solution of anti-rabbit immunoglobulin coupled to horseradish peroxidase in bonding buffer are added. After incubation at room temperature for 30 minutes, the plate is washed three times with wash buffer in order to remove non-bonded VBC complex and antibodies. To determine the amount of bonded VBC complex, the plate is incubated with TMB for 15 minutes. The colour reaction is ended by addition of 100 μl 1 M sulphuric acid. The amount of bonded VBC complex is determined by measurement of the optical density at 450 nm. It is proportional to the amount of hydroxylated proline in the peptide substrate.
# Alternatively, a VBC complex coupled to europium (Perkin Elmer) can be used for detection of the prolyl hydroxylation. In this case, the amount of bonded VBC complex is determined by the fluorescence with respect to time. The use of VBC complex labelled with [^35S]-methionine is moreover possible. For this, the radioactively labelled VBC complex can be prepared by in vitro transcription-translation in reticulocyte lysate.
row,SMILES,IC50
1,"O=c1c(-n2ccnn2)c[nH]n1-c1cc(N2CCN(C3CCC3)CC2)ncn1 [Example 2, 2-[6-(4-Cyclobutylpiperazin-1-yl)pyrimidin-4-yl]-4-(1H-1,2,3-triazol-1-yl)-1,2-dihydro-3H-pyrazol-3-one]",880 nM
2,"CN(C)C1CN(c2cc(-n3[nH]cc(-n4ccnn4)c3=O)ncn2)C1 [Example 9, 2-{6-[3-(Dimethylamino)azetidin-1-yl]pyrimidin-4-yl}-4-(1H-1,2,3-triazol-1-yl)-1,2-dihydro-3H-pyrazol-3-one dihydrochloride]",760 nM
3,"O=C(O)C1CN(c2cc(-n3[nH]cc(-n4ccnc4)c3=O)ncn2)C1 [Example 5, 1-{6-[4-(1H-Imidazol-1-yl)-5-oxo-2,5-dihydro-1H-pyrazol-1-yl]pyrimidin-4-yl}azetidine-3-carboxylic acid]",540 nM
4,"N#Cc1cn(-c2c[nH]n(-c3cc(N4CCC(F)(F)C4)ncn3)c2=O)nn1 [Example 17, 1-{2-[6-(3,3-Difluoropyrrolidin-1-yl)pyrimidin-4-yl]-3-oxo-2,3-dihydro-1H-pyrazol-4-yl}-1H-1,2,3-triazole-4-carbonitrile]",130 nM

# Further lines, results first:
row,IC50,SMILES
1,180 nM,"N#Cc1cn(-c2c[nH]n(-c3cc(N4CCCOCC4)ncn3)c2=O)cn1 [Example 25, 1-{2-[6-(1,4-Oxazepan-4-yl)pyrimidin-4-yl]-3-oxo-2,3-dihydro-1H-pyrazol-4-yl}-1H-imidazole-4-carbonitrile]"
2,170 nM,"N#Cc1cn(-c2c[nH]n(-c3cc(N4CCCCO4)ncn3)c2=O)nn1 [Example 29, 1-{2-[6-(1,2-Oxazinan-2-yl)pyrimidin-4-yl]-3-oxo-2,3-dihydro-1H-pyrazol-4-yl}-1H-1,2,3-triazole-4-carbonitrile]"
3,380 nM,"N#Cc1cn(-c2c[nH]n(-c3cc(N4CCCOCC4)ncn3)c2=O)nn1 [Example 26, 1-{2-[6-(1,4-Oxazepan-4-yl)pyrimidin-4-yl]-3-oxo-2,3-dihydro-1H-pyrazol-4-yl}-1H-1,2,3-triazole-4-carbonitrile]"
4,70 nM,"N#Cc1cn(-c2c[nH]n(-c3cc(N4CC(F)(F)C4)ncn3)c2=O)nn1 [Example 21, 1-{2-[6-(3,3-Difluoroazetidin-1-yl)pyrimidin-4-yl]-3-oxo-2,3-dihydro-1H-pyrazol-4-yl}-1H-1,2,3-triazole-4-carbonitrile]"
